The results in this text go back to patent US11820804B2, “Peptide-based inhibitors of growth hormone action and methods of use thereof” (Ohio University, priority 2018, dated 2023).

Holding throughout (type): cell-based
For experiment [1], the system named is hGH mediated STAT5 phosphorylation in SK-MEL-28 human melanoma cells. As to the kind of experiment: Western blot of hGH mediated STAT5 phosphorylation in SK-MEL-28 cells. The conditions noted are these: co-treated with 2.5 nM recombinant hGH, peptide at 25 and 250 nM, 20 minutes. As for the experimental part:
(§1) Human malignant melanoma cell lines—SK-MEL-28, SK-MEL-30, human lymphoblast IM9 cells, mouse fibroblast L cells were obtained from American Type Culture Collection (ATCC; Manassas, Va.). SK-MEL-28 were grown and maintained in EMEM media (ATCC), while IM9 and L cells were grown in RPMI-1640 (ATCC) and DMEM (ATCC) respectively, as indicated by ATCC protocols. Complete growth media was supplemented with 10% fetal bovine serum (FBS; ATCC) and 1×antibiotic-antimycotic (Thermo Fisher Scientific, Waltham, Mass.). Cells were grown at 37° C./5% CO2 in a humidified incubator. Media was replaced every 48 hours. No hGH was present in the media or added externally unless specifically mentioned. For hGH treatment of adherent cells, 12-16 hours after seeding the cells were serum-starved for 4 hours in serum free growth media and hGH (or PBS as control) was added at the mentioned concentrations (50 ng/mL=2.5 nM or other concentrations). […]
(§2) Western blotting was performed following established lab procedures. […] Membranes were then washed and treated with West Femto Chemiluminiscence® detection reagents (Thermo Fisher Scientific) and the chemiluminiscence signal was captured using a GelDoc® (Biorad) fluorescence reader. Densitometry analysis of the blots was done by measured band-intensity from the area-under-curve using ImageJ® software. […]

Experiment [2] deals with hGH mediated STAT5 phosphorylation in IM9 human lymphoblast cells. As to the kind of experiment: Western blot of hGH mediated STAT5 phosphorylation in IM9 cells. The following applies: co-treated with 2.5 nM recombinant hGH, peptide at 25 and 250 nM, 20 minutes. Here is the method:
as §1, §2

In experiment [3] the test system is hGH mediated STAT5 phosphorylation in L mouse fibroblasts cells. As to the kind of experiment: Western blot of hGH mediated STAT5 phosphorylation in L cells. The following applies: L mouse fibroblast cells, co-treated with 2.5 nM recombinant hGH, peptide at 25 and 250 nM, 20 minutes. As for the experimental part: as §1, §2
Experiment [4] deals with tyrosine pSTAT5 levels following hGH stimulation. The experiment in a line: tyrosine pSTAT5 levels following hGH stimulation (cells not named at the place). The conditions noted are these: general statement, cell line not named.
Source text: A hallmark of hGH action is rapid tyrosine phosphorylation of the STAT5(A and B) transcription factor protein following binding of hGH to hGHR and transactivation of hGHR associated JAK2. The phosphorylation event is rapid (minutes following hGH addition) and has been used as a readout of hGHR activation. Inhibitors of hGH action blocks hGH-hGHR mediated STAT5 tyrosine phosphorylation in many cells, including IM9, SK-MEL-28, mouse fibroblasts, and other cells which express hGHR.
as §1, with “mentioned.” for “mentioned. For hGH treatment of adherent cells, 12-16 hours after seeding the cells were serum-starved for 4 hours in serum free growth media and hGH (or PBS as control) was added at the mentioned concentrations (50 ng/mL=2.5 nM or other concentrations).”

For “Tyr Ile Pro Lys Glu Gln Lys Tyr Ser Phe Leu Gln Asn Pro Gln Thr (YIPKEQKYSFLQNPQT; listed as Homo sapiens) [S1H, 16-amino acid peptide mimicking hGH site 1 helix, residues 36-51]”, in experiment [1], the “hGH mediated STAT5 phosphorylation (pSTAT5 levels)” value is on record as “downregulates hGH mediated STAT5 phosphorylation”. For the same substance, the “hGH mediated STAT5 phosphorylation (phospho-STAT5 levels)” value in experiment [2] and in experiment [3] was “downregulates hGH mediated STAT5 phosphorylation” in each case. Moreover, the “tyrosine pSTAT5 levels following hGH stimulation” value in experiment [4] is “robustly blocks tyrosine pSTAT5 levels following hGH stimulation, in a dose-dependent manner”.
